PMC3813382 (The Journal of General Physiology, 2013)

Molecular target: T1, Slo2.1 (Homo sapiens, UniProt Q6UVM3)
T1 sequence (Q6UVM3 1-1135): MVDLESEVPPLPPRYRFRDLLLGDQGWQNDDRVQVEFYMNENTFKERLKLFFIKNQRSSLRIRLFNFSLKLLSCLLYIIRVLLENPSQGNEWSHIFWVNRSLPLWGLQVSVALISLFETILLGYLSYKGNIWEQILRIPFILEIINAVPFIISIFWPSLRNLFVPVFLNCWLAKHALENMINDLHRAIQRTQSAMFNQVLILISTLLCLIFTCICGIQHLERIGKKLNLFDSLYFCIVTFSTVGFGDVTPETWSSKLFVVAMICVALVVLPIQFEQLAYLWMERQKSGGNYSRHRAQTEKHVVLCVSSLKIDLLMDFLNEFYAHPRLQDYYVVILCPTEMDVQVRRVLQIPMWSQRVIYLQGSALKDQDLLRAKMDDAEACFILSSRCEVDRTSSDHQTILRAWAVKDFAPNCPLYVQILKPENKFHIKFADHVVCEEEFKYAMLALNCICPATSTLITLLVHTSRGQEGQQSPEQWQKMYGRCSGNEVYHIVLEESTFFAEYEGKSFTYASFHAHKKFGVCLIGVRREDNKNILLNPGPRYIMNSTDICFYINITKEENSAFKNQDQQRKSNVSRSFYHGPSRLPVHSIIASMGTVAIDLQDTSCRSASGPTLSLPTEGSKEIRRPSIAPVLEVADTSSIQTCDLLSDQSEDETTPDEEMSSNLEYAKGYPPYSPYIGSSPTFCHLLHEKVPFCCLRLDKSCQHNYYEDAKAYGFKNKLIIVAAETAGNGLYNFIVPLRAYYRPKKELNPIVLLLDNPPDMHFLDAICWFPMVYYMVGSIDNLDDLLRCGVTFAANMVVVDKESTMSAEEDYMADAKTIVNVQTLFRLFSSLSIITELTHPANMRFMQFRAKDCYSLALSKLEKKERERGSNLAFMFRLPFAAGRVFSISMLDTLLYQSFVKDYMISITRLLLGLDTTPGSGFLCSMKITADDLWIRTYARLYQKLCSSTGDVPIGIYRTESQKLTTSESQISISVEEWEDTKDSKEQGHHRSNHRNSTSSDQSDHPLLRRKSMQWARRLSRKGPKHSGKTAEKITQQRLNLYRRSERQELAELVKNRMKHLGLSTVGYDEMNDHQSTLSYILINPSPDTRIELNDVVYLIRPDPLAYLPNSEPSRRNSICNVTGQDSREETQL
Experiment: Excised inside-out macropatch recordings of ISlo2.1 from oocytes
Assay type: cell-based
Conditions: 10 µM in bath (cytosolic) solution

effect on run-down of macroscopic ISlo2.1 in excised patches: preventable
SMILES: CCCCCCCC(=O)OC[C@H](COP(=O)(O)O[C@@H]1[C@H](O)[C@H](O)[C@@H](OP(=O)(O)O)[C@H](OP(=O)(O)O)[C@H]1O)OC(=O)CCCCCCC [PI(4,5)P2 diC8, phosphatidylinositol 4,5-bisphosphate diC8]
